For experiment [1], the system named is Helicobacter pylori ATCC 43629. In words: Agar plate dilution method, MIC. It is filed as cell-based. The following applies: ATCC43629, 96 h; Helicobacter pylori ATCC 43629, BHI agar with 7% horse blood, 4 days. On the procedure:
(§1) Firstly, the thus-synthesized compound of the present invention (2) was studied for its activity in vitro. For antibacterial activity, an agar plate dilution method was employed. The agar plate dilution method is well known in the art.
(§2) Specifically, a test compound containing the compound of the present invention was dissolved into dimethylsulfoxide, and serially diluted by two fold each time with sterile distilled water to prepare an antibacterial activity sample for the test compound containing the compound of the present invention. A BHI (Brain Heart Infusion) agar with 7% horse blood was used as medium for investigation of the antibacterial activity against H. pylori and H. felis. 1 ml of the sample of the compound of the present invention was added to 9 ml of the medium, followed by mixing to prepare an agar plate for measuring the antibacterial activity. MH (Mueller Hinton) agar medium was used to investigate the antibacterial activities against Pseudomonas aeruginosa, Escherichia coli, Klebsiella pneumoniae, and Staphylococcus aureus; and 10% horse serum-added MH agar medium was used to investigate the antibacterial activities against Streptococcus pneumoniae and Enterococcus faecalis. In both cases, agar plates for measuring the antibacterial activities are prepared in a manner similar to that for H. pylori and H. felis. For H. pylori and H. felis out of the bacteria to be subjected to the tests, 1 ml of each frozen bacterium stock solution was inoculated to 9 ml of 7% bovine fetal serum-added BHI liquid medium, and cultured at 37° C. for 48 hours in a 10% CO2 incubator. Each culture bacterium solution was prepared with the same medium to 10^6 CFU/ml (colony formation unit/milliliter). 5 μl of the prepared bacterium solution was inoculated to the antibacterial activity measuring agar medium, and cultured at 37° C. for 4 days in a 10% CO2 incubator. MH liquid medium was used for Pseudomonas aeruginosa, Escherichia coli, Klebsiella pneumoniae, and Staphylococcus aureus; and 10% horse serum-added MH liquid medium was used for Streptococcus pneumoniae and Enterococcus faecalis. In both cases, 1 ml of each frozen bacterium stock solution was inoculated to 9 ml of the medium, and cultured at 37° C. overnight. Each culture bacterium solution was prepared with the same medium as that had been used in the incubation to 10^6 CFU/ml. 5 μl of the prepared bacterium solution was inoculated to the antibacterial activity measuring agar medium, and cultured at 37° C. overnight.
(§3) The results are represented by MIC (Minimum Inhibitory Concentration).

Experiment [2] has as its system Helicobacter pylori SR-9043. In words: Agar plate dilution method, MIC. Conditions: SR9043, 96 h; Helicobacter pylori SR-9043, BHI agar with 7% horse blood, 4 days. It is filed as cell-based. On the procedure: as §1, §2, §3
For experiment [3], the system named is Staphylococcus aureus FDA 209P. In words: Agar plate dilution method, MIC. It is filed as cell-based. Conditions: FDA209P, MH agar, overnight. On the procedure:
as §1, §2, §3

Experiment [4] concerns Helicobacter pylori ATCC 43504. In words: Agar plate dilution method, MIC. It is filed as cell-based. Conditions: ATCC43504, 96 h; Helicobacter pylori ATCC 43504, BHI agar with 7% horse blood, 4 days. The protocol:
as §1, §2, §3

Experiment [5] has as its system Enterococcus faecalis ATCC 19433. In words: Agar plate dilution method, MIC. It is filed as cell-based. The following applies: ATCC19433; Enterococcus faecalis ATCC 19433, 10% horse serum-added MH agar, overnight. On the procedure: as §1, §2, §3
The subject of experiment [6] is Helicobacter felis ATCC 49179. In words: Agar plate dilution method, MIC. It is filed as cell-based. The following applies: ATCC49179, 96 h; Helicobacter felis ATCC 49179, BHI agar with 7% horse blood, 4 days. The protocol:
as §1, §2, §3

Experiment [7] relates to Streptococcus pneumoniae SR-1003. In words: Agar plate dilution method, MIC. It is filed as cell-based. The following applies: SR1003; Streptococcus pneumoniae SR-1003, 10% horse serum-added MH agar, overnight. On the procedure: as §1, §2, §3
Experiment [8] deals with H. pylori ATCC 43504. In words: In vivo bacterial eradication test in infected mice. The following applies: for Bacterial eradication number / bacterial eradication % / Number of each bacterium in stomach: oral, three days; for Bacterial eradication number / bacterial eradication %: 3 samples; for Number of each bacterium in stomach: individual mice, limit of detection log 1.3; for bacterial eradication effect: 40 mg/kg. Also on record: species or system mice of the ICR strain. On the procedure:
Next, the compound of the present invention was studied as to whether or not it had bacterial eradication activity in vivo. 5-week old mice of the ICR strain from CLEA Japan, Inc. were used. These mice were infected with H. pylori ATCC 43504 (day 0). After the mice had been confirmed to be infected with H. pylori, the dose indicated in Table 3 was administered into the mice twice a day (AM 9 and PM 5) from day 20 to day 22. At day 23 which was the day after the last day of the administration, the mice were dissected and the number of bacteria within their stomachs were counted. The bacteria count measurement was conducted in the following manner. Phosphate buffer was added to the collected stomachs to prepare homogenates. These homogenates were inoculated to 7% horse blood-added agar medium to which various drugs were added in order to suppress the growth of bacteria other than the genus Helicobacter, and cultured at 37° C. for 7 days in a 10% CO2 incubator. The bacterial eradication activity was judged by detecting the presence or absence of the growth of the bacteria.

The test system of experiment [9] is Klebsiella pneumoniae ATCC 27736. In words: Agar plate dilution method, MIC. It is filed as cell-based. Conditions: ATCC27736; Klebsiella pneumoniae ATCC 27736, MH agar, overnight. On the procedure:
as §1, §2
(§4) The antibacterial activity of the compound against a subject bacterium (MIC: Minimum Inhibitory Concentration) was a maximum dilution ratio at which the growth of inoculated bacteria was not observed by the unaided eye.
as §3

Experiment [10] concerns Escherichia coli NIHJ JC-2. In words: Agar plate dilution method, MIC. It is filed as cell-based. Conditions: NIHJJC2; Escherichia coli NIHJ JC-2, MH agar, overnight. The protocol:
as §1, §2, §4, §3

For experiment [11], the system named is Helicobacter pylori SS1. In words: Agar plate dilution method, MIC. It is filed as cell-based. The following applies: 96 h; Helicobacter pylori SS1, BHI agar with 7% horse blood, 4 days. On the procedure: as §1, §2, §4, §3
Experiment [12] relates to Pseudomonas aeruginosa ATCC 25619. In words: Agar plate dilution method, MIC. It is filed as cell-based. Conditions: ATCC25619; Pseudomonas aeruginosa ATCC 25619, MH agar, overnight. The protocol: as §1, §2, §4, §3

≈ marks a conversion by molar mass, not a printed value. Where “and” joins values, the source holds several entries; their conditions need not be identical. Equal values may be shown once. Bounds are passed on as bounds.

`O=C1c2ccc3c4c(ccc(c24)C(=O)N1c1ccccn1)C(=O)N(c1ccccn1)C3=O` [Compound 2, N,N′-bis-(2-pyridyl)naphthalene-1,4,5,8-tetracarboxylate diimide]: the MIC – broadly, the lowest concentration that inhibits growth of the organism – in [1] was 0.2 µg/mL (≈ 0.476 µM); in experiment [2], 0.39 µg/mL (≈ 0.928 µM); in experiment [3], over 25 µg/mL; in [4], 0.2 µg/mL (≈ 0.476 µM); in experiment [5], over 25 µg/mL; in experiment [6], 0.1 µg/mL (≈ 0.238 µM). Further, the MIC is over 25 µg/mL in experiment [7]; over 25 µg/mL in [9]; over 25 µg/mL in [10]; 0.1 µg/mL (≈ 0.238 µM) in experiment [11]; over 25 µg/mL in [12]. The “bacterial eradication effect (samples)” value in experiment [8] (20 mg/kg) is on record as 3/3. Also, the Bacterial eradication number in [8] (20 mg/kg twice a day) is on record as 3. The same compound yielded a bacterial eradication % in [8] (20 mg/kg twice a day) of 100%. For the same compound, in experiment [8] (20 mg/kg twice a day), the “Number of each bacterium in stomach” value was <1.3, <1.3, log CFU/stomach (2×) and <1.3 log CFU/stomach.

`CC1(C)S[C@@H]2[C@H](NC(=O)[C@H](N)c3ccc(O)cc3)C(=O)N2[C@H]1C(=O)O` [Amoxicillin, amoxicillin]: the minimum inhibitory concentration (MIC) in experiment [1] is 0.1 µg/mL (≈ 0.274 µM); in experiment [2], 0.39 µg/mL (≈ 1.07 µM); in experiment [3] it was 0.05 µg/mL (≈ 0.137 µM); in experiment [4], 0.025 µg/mL (≈ 0.0684 µM); in experiment [5], 0.39 µg/mL (≈ 1.07 µM); in experiment [6] it was 0.1 µg/mL (≈ 0.274 µM). The minimum inhibitory concentration (MIC) is 0.05 µg/mL (≈ 0.137 µM) in experiment [7]; 0.2 µg/mL (≈ 0.547 µM) in [9]; 6.25 µg/mL (≈ 17.1 µM) in [10]; 0.39 µg/mL (≈ 1.07 µM) in experiment [11]; over 25 µg/mL in [12]. Moreover, the Bacterial eradication number in experiment [8] (20 mg/kg twice a day) came out at 1; in experiment [8] (40 mg/kg twice a day), 2. Further, the bacterial eradication % worked out at 33% in experiment [8] (20 mg/kg twice a day) and 67% in experiment [8] (40 mg/kg twice a day). Also, the “Number of each bacterium in stomach” value in experiment [8] (20 mg/kg twice a day) is 1.60 log CFU/stomach and < 1.3 log CFU/stomach; in experiment [8] (40 mg/kg twice a day), <1.3, <1.3, log CFU/stomach (2×) and 1.78 log CFU/stomach. In experiment [8], the bacterial eradication effect result is reported as “not observed”.

As for `CC(=O)OCCN1C(=O)c2ccc3c4c(ccc(c24)C1=O)C(=O)N(CCOC(C)=O)C3=O` [Compound 6], the MIC was over 25 µg/mL in experiment [3], 0.31 µg/mL (≈ 0.707 µM) in experiment [4], over 25 µg/mL in experiment [10] and over 25 µg/mL in [12].

In the case of `O=C1c2ccccc2C(=O)N1N1C(=O)c2ccc3c4c(ccc(c24)C1=O)C(=O)N(N1C(=O)c2ccccc2C1=O)C3=O` [Compound 5], the MIC in experiment [3] is over 25 µg/mL; in experiment [4], 12.5 µg/mL (≈ 22.5 µM); in [10] it was over 25 µg/mL; in experiment [12], over 25 µg/mL.

Turning to `CN1C(=O)c2ccc3c4c(ccc(c24)C1=O)C(=O)N(C)C3=O` [Compound 3], the MIC in experiment [3] is over 25 µg/mL; in experiment [4] it was 6.25 µg/mL (≈ 21.2 µM); in experiment [10] it was over 25 µg/mL; in experiment [12], over 25 µg/mL.

With `O=C1c2ccc3c4c(ccc(c24)C(=O)N1c1nccs1)C(=O)N(c1nccs1)C3=O` [Compound 4], the MIC is over 25 µg/mL in experiment [3], 2.5 µg/mL (≈ 5.78 µM) in experiment [4], over 25 µg/mL in experiment [10] and over 25 µg/mL in experiment [12].

Turning to `CN(C)CCN1C(=O)c2ccc3c4c(ccc(c24)C1=O)C(=O)N(CCN(C)C)C3=O` [Compound 7], the MIC in experiment [3] was over 25 µg/mL; in experiment [4] it was 0.39 µg/mL (≈ 0.955 µM); in experiment [10], over 25 µg/mL; in [12], over 25 µg/mL.

`CN(C)[C@@H]1C(O)=C(C(N)=O)C(=O)[C@@]2(O)C(O)=C3C(=O)c4c(O)cccc4[C@@](C)(O)[C@H]3C[C@@H]12` [Tetracycline, tetracycline]: the results for the MIC in experiment [9], in experiment [10] and in experiment [12] were 3.13 µg/mL (≈ 7.04 µM), 1.56 µg/mL (≈ 3.51 µM) and over 25 µg/mL, respectively.

Turning to `CC[C@H]1OC(=O)[C@H](C)[C@@H](O[C@H]2C[C@@](C)(OC)[C@@H](O)[C@H](C)O2)[C@H](C)[C@@H](O[C@@H]2O[C@H](C)C[C@H](N(C)C)[C@H]2O)[C@](C)(OC)C[C@@H](C)C(=O)[C@H](C)[C@@H](O)[C@]1(C)O` [Clarithromycin, clarithromycin], the MIC in [1] was 0.1 µg/mL (≈ 0.134 µM); in [2] it was over 25 µg/mL; in experiment [3] it was 0.05 µg/mL (≈ 0.0668 µM); in [4] it was 0.025 µg/mL (≈ 0.0334 µM); in experiment [5], over 25 µg/mL; in experiment [6], under 0.025 µg/mL. Moreover, the minimum inhibitory concentration (MIC) was 0.0125 µg/mL (≈ 0.0167 µM) in [7]; over 25 µg/mL in experiment [9]; 12.5 µg/mL (≈ 16.7 µM) in [10]; 0.025 µg/mL (≈ 0.0334 µM) in [11]; over 25 µg/mL in experiment [12]. The Bacterial eradication number in experiment [8] (20 mg/kg twice a day) and in [8] (40 mg/kg twice a day) was 0 (0) in each case. In addition, the bacterial eradication % in experiment [8] (20 mg/kg twice a day) and in experiment [8] (40 mg/kg twice a day) was 0 (0) % in each case. Also, the “Number of each bacterium in stomach” value in experiment [8] (20 mg/kg twice a day) was 2.79 log CFU/stomach and 2.89 log CFU/stomach and 3.37 log CFU/stomach; in experiment [8] (40 mg/kg twice a day) it was 1.6, 1.6, log CFU/stomach (2×) and 2.38 log CFU/stomach. Also, the bacterial eradication effect result in experiment [8] is on record as “not observed”.

`Cc1ncc([N+](=O)[O-])n1CCO` [Metronidazole, metronidazole]: the MIC in [1] is 3.13 µg/mL (≈ 18.3 µM); in experiment [2], over 25 µg/mL; in [3], over 25 µg/mL; in experiment [4] it was over 25 µg/mL; in experiment [5], over 25 µg/mL; in [6], 0.78 µg/mL (≈ 4.56 µM). Further, the MIC is over 25 µg/mL in experiment [7]; over 25 µg/mL in experiment [9]; over 25 µg/mL in experiment [10]; 0.78 µg/mL (≈ 4.56 µM) in experiment [11]; over 25 µg/mL in experiment [12].
